Results from US7358267B2, “Bis-aryl thiazole derivatives” (Amgen Inc., priority 2001, dated 2008).
Values belong to the compound of their own block, whether it stands above or below them.

Legend:
UCP3 = UCP3 RNA induction in rat L6 cells (QPCR); assay type: cell-based; design: key to UCP3 RNA induction, Induction at 10 μM: ++ denotes greater than 10-fold induction; + denotes 10-fold or less induction; — denotes no induction
Description: Table 1 provides QPCR data (ABI 7700 Sequence Detection System) for exemplary compounds of formula I evaluated for UCP3 RNA induction in L6 cells from rats. The assay is described in Example 14.4, below.
Rat UCP3 (L6 cells) QPCR Protocol
1. (Day1) Plate 300,000 L6 cells per well (24 well plate) in Minimum Essential Medium-Alpha Medium with 2% FBS and Antibiotic/Antimycotic Solution added. Incubate for 2 days and change to fresh medium (Day3). Incubate 1 more day.
2. (Day 4) Add compound at desired concentration. Incubate for 18-20 h. 2 wells per compound. 4-wells of DMSO controls per plate.
3. (Day 5) Prepare RNA from cells: • (1) Aspirate media and lyse cells directly on plate by adding 500 μL of Trizol Reagent (Gibco BRL) to each well and passing the lysate several times through a pipette. Transfer lysate to eppendorf tubes (combining the lysate from identical compound treatments). • (2) Add 200 μL of chloroform to the 1 mL of lysate. Vortex to mix and incubate at room temp. for 2-3 min. Spin samples in a microfuge at 12,000 rpm for 15 min. at 4° C. • (3) Transfer the aqueous phase to a fresh tube. Precipitate the RNA from the aqueous phase by adding 500 μL of isopropanol and mixing well. Incubate at −20° C. for at least 15 min. Pellet the RNA by spinning at 12,000 rpm for 10 min. at 4° C. • (4) Remove the supernatant and wash the RNA pellet with 500 μL of 75% ethanol. Spin at 10,000 rpm for 5 min. at 4° C. • (5) Remove the supernatant and allow pellet to air dry briefly. Dissolve RNA in 15 μL of RNase-free water. Store at −80° C. Electrophorese some RNA to check quality.
4. QPCR (50 μL reactions in 96 well MicroAmp Optical Plate): TaqMan Gold RT-PCR Reagents (PE catalog #N808-0232): OD RNA and dilute to 5 ng/μL in RNase-free water. All samples run in duplicate with UCP3 and m18S probe/primers
Add 40 μL of Reaction Mix to 10 μL of diluted RNA (50 ng total) on QPCR plate PCR Cycling Parameters • 48° C. 30 min. • 95° C. 10 min. • 40 cycles: 95° C. 15 sec. • 58° C. 1.5 min. QPCR Primers/Probes

RXRα = target: T1, RXRα (Homo sapiens, UniProt P19793); assay: RXRα induction in HEK 293 cells (transient transfection, luciferase reporter); assay type: cell-based
T1 construct: expressed in transfected cells; host or cells: HEK 293 cells
T1 sequence (P19793 1-462): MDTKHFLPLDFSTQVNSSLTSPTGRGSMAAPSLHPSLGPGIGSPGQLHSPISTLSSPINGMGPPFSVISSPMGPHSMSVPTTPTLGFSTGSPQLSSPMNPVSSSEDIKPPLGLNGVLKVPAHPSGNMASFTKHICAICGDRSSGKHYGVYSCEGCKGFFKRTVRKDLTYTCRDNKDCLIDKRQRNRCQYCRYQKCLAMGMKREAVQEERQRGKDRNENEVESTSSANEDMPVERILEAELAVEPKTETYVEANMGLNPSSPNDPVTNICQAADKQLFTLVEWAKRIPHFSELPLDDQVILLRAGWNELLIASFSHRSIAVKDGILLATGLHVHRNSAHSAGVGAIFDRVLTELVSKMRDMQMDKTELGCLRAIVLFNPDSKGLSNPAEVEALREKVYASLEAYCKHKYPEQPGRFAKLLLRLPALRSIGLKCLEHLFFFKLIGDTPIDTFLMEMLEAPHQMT
Description: Table 2 provides QPCR data (ABI 7700 Sequence Detection System) for exemplary compounds of formula I evaluated for RXR induction in HEK 293 cells, following a general protocol, briefly described below. See Naeger et al. (1999) J. Biol. Chem. 274:1875-1878 for a related cell-based assay.
DNA constructs containing a luciferase reporter plasmid and another plasmid which contained an activation domain (e.g., RXRα) were transiently transfected into HEK 293 cells. The cells were treated with the compounds and luciferase activity was measured using a luminometer. Fold induction was determined by comparing the luciferase activity of treated cells to the activity of untreated cells.

SMILES: Cc1c(C(=O)NCCC(=O)O)cnn1-c1nc(-c2cccc(C(F)(F)F)c2)cs1 [Compound 20]
fold induction at 10 µM (UCP3): ≤ 10

SMILES: O=C(O)c1cnn(-c2nc(-c3cccc(C(F)(F)F)c3)cs2)c1 [Compound 6, 1-[4-(3-(Trifluoromethyl)phenyl)thiazol-2-yl]pyrazole-4-carboxylic acid]
melting point: 229.1 to 229.6 °C
fold induction at 10 µM (UCP3): > 10

SMILES: Cc1c(C(=O)O)cnn1-c1nc(-c2cccc(Cl)c2)cs1 [Compound 4, 1-[4-(3-Chlorophenyl)thiazol-2-yl]-5-methylpyrazole-4-carboxylic acid]
melting point: 258 to 258.3 °C
fold induction at 10 µM (UCP3): > 10

SMILES: O=C(O)c1cnn(-c2nc(-c3cccc([N+](=O)[O-])c3)cs2)c1C(F)(F)F [Compound 12, 1-[4-(3-Nitrophenyl)thiazol-2-yl]-5-trifluoromethylpyrazole-4-carboxylic acid]
UCP3 RNA induction, Induction at 10 μM (UCP3): —

SMILES: O=C(O)c1cnn(-c2nc(-c3cccc(C(F)(F)F)c3)cs2)c1C(F)(F)F [Compound 5, 1-[4-(3-(Trifluoromethyl)phenyl)thiazol-2-yl]-5-trifluoromethylpyrazole-4-carboxylic acid]
fold induction at 10 µM (UCP3): > 10
RXRα RNA induction at 1 μM (RXRα): + (+ denotes 5-fold or less induction)
RXRα RNA induction at 3 μM (RXRα): + (+ denotes 5-fold or less induction)
RXRα RNA induction at 10 μM (RXRα): + (+ denotes 5-fold or less induction)

SMILES: COc1cccc(-c2csc(-n3ncc(C(=O)O)c3C)n2)c1 [Compound 14]
RXRα RNA induction at 1 μM (RXRα): ++ (++ denotes greater than 5-fold induction)
RXRα RNA induction at 3 μM (RXRα): ++ (++ denotes greater than 5-fold induction)
RXRα RNA induction at 10 μM (RXRα): ++ (++ denotes greater than 5-fold induction)

SMILES: Cc1c(C(=O)O)cnn1-c1nc(-c2ccc(Cl)c(Cl)c2)cs1 [Compound 3, 1-[4-(3,4-Dichlorophenyl)thiazol-2-yl]-5-methylpyrazole-4-carboxylic acid]
melting point: 278 to 278.6 °C
fold induction at 10 µM (UCP3): > 10
RXRα RNA induction at 1 μM (RXRα): + (+ denotes 5-fold or less induction)
RXRα RNA induction at 3 μM (RXRα): + (+ denotes 5-fold or less induction)
RXRα RNA induction at 10 μM (RXRα): + (+ denotes 5-fold or less induction)

SMILES: Cc1c(C(=O)O)cnn1-c1nc(-c2ccc(C(F)(F)F)cc2)cs1 [Compound 2, 1-[4-(4-(Trifluoromethyl)phenyl)thiazol-2-yl]-5-methylpyrazole-4-carboxylic acid]
melting point: 273 to 274 °C
fold induction at 10 µM (UCP3): > 10
RXRα RNA induction at 1 μM (RXRα): + (+ denotes 5-fold or less induction)
RXRα RNA induction at 3 μM (RXRα): + (+ denotes 5-fold or less induction)
RXRα RNA induction at 10 μM (RXRα): + (+ denotes 5-fold or less induction)

More lines, main results first:

melting point: 273.1 to 274.3 °C
RXRα RNA induction at 1 μM (RXRα): + (+ denotes 5-fold or less induction)
RXRα RNA induction at 3 μM (RXRα): + (+ denotes 5-fold or less induction)
RXRα RNA induction at 10 μM (RXRα): + (+ denotes 5-fold or less induction)
SMILES: Cc1c(C(=O)O)cnn1-c1nc(-c2ccc3ccccc3c2)cs1 [Compound 9, 1-[4-(2-Naphthyl)thiazol-2-yl]-5-methylpyrazole-4-carboxylic acid]
UCP3 RNA induction, Induction at 10 μM (UCP3): —

RXRα RNA induction at 1 μM (RXRα): + (+ denotes 5-fold or less induction)
RXRα RNA induction at 3 μM (RXRα): + (+ denotes 5-fold or less induction)
RXRα RNA induction at 10 μM (RXRα): + (+ denotes 5-fold or less induction)
SMILES: Cc1c(C(=O)O)cnn1-c1nc(-c2ccc(-c3ccccc3)cc2)cs1 [Compound 19]

melting point: 260.9 to 261.4 °C
RXRα RNA induction at 1 μM (RXRα): + (+ denotes 5-fold or less induction)
RXRα RNA induction at 10 μM (RXRα): + (+ denotes 5-fold or less induction)
SMILES: Cc1c(C(=O)O)cnn1-c1nc(-c2cc(C(F)(F)F)cc(C(F)(F)F)c2)cs1 [Compound 10, 1-[4-(3,5-Bis(trifluoromethyl)phenyl)thiazol-2-yl]-5-methylpyrazole-4-carboxylic acid]
fold induction at 10 µM (UCP3): ≤ 10
RXRα RNA induction at 3 μM (RXRα): ++ (++ denotes greater than 5-fold induction)

RXRα RNA induction at 1 μM (RXRα): + (+ denotes 5-fold or less induction)
RXRα RNA induction at 3 μM (RXRα): + (+ denotes 5-fold or less induction)
RXRα RNA induction at 10 μM (RXRα): + (+ denotes 5-fold or less induction)
SMILES: CCOC(=O)c1cnn(-c2nc(-c3cccc([N+](=O)[O-])c3)cs2)c1C [Compound 8, Ethyl 1-[4-(3-nitrophenyl)thiazol-2-yl]-5-methylpyrazole-4-carboxylate]
UCP3 RNA induction, Induction at 10 μM (UCP3): —

melting point: 215.5 to 216.5 °C
RXRα RNA induction at 1 μM (RXRα): + (+ denotes 5-fold or less induction)
RXRα RNA induction at 3 μM (RXRα): + (+ denotes 5-fold or less induction)
RXRα RNA induction at 10 μM (RXRα): + (+ denotes 5-fold or less induction)
SMILES: Cc1c(C(=O)O)cnn1-c1nc(-c2ccccc2C(F)(F)F)cs1 [Compound 7, 1-[4-(2-(Trifluoromethyl)phenyl)thiazol-2-yl]-5-methylpyrazole-4-carboxylic acid]
fold induction at 10 µM (UCP3): > 10

RXRα RNA induction at 1 μM (RXRα): + (+ denotes 5-fold or less induction)
RXRα RNA induction at 3 μM (RXRα): + (+ denotes 5-fold or less induction)
RXRα RNA induction at 10 μM (RXRα): + (+ denotes 5-fold or less induction)
SMILES: O=C(O)c1cnn(-c2nc(-c3cccc(C(F)(F)F)c3)cs2)c1C(=O)O [Compound 16]

melting point: 204 to 204.7 °C
RXRα RNA induction at 1 μM (RXRα): + (+ denotes 5-fold or less induction)
RXRα RNA induction at 3 μM (RXRα): + (+ denotes 5-fold or less induction)
RXRα RNA induction at 10 μM (RXRα): + (+ denotes 5-fold or less induction)
SMILES: O=C(O)c1cnn(-c2nc(-c3cc(C(F)(F)F)cc(C(F)(F)F)c3)cs2)c1C(F)(F)F [Compound 13, 1-[4-(3,5-Bis(trifluoromethyl)phenyl)thiazol-2-yl]-5-(trifluoromethyl)pyrazole-4-carboxylic acid]
fold induction at 10 µM (UCP3): ≤ 10

melting point: 138 to 138.5 °C
SMILES: CCOC(=O)c1cnn(-c2nc(-c3cccc(C(F)(F)F)c3)cs2)c1C [Compound 11, Ethyl 1-[4-(3-(trifluoromethyl)phenyl)thiazol-2-yl]-5-methylpyrazole-4-carboxylate]
fold induction at 10 µM (UCP3): ≤ 10

RXRα RNA induction at 1 μM (RXRα): + (+ denotes 5-fold or less induction)
RXRα RNA induction at 3 μM (RXRα): + (+ denotes 5-fold or less induction)
RXRα RNA induction at 10 μM (RXRα): + (+ denotes 5-fold or less induction)
SMILES: Cc1c(C(=O)O)cnn1-c1nc(-c2ccccc2)cs1 [Compound 17]

RXRα RNA induction at 1 μM (RXRα): + (+ denotes 5-fold or less induction)
RXRα RNA induction at 10 μM (RXRα): + (+ denotes 5-fold or less induction)
SMILES: Cc1c(C(=O)O)cnn1-c1nc(-c2ccc(Cl)cc2)cs1 [Compound 18]
RXRα RNA induction at 3 μM (RXRα): ++ (++ denotes greater than 5-fold induction)

RXRα RNA induction at 1 μM (RXRα): + (+ denotes 5-fold or less induction)
RXRα RNA induction at 10 μM (RXRα): + (+ denotes 5-fold or less induction)
SMILES: CCc1c(C(=O)O)cnn1-c1nc(-c2cccc(C(F)(F)F)c2)cs1 [Compound 15]
RXRα RNA induction at 3 μM (RXRα): ++ (++ denotes greater than 5-fold induction)
